Literature values in US8481490B2, “Method of reducing plasma amylase and/or plasma lipase in patients with pancreatitis” (Amylin Pharmaceuticals, LLC, priority 2010, dated 2013).

System: diabetic transgenic HIP rats
Details: one rat with histological features of acute pancreatitis

## N[C@@H](CC(=O)N1CCn2c(nnc2C(F)(F)F)C1)Cc1cc(F)c(F)cc1F [sitagliptin]
  ductal cell turnover and metaplasia: increased ductal cell turnover and metaplasia
